Test results as given in US11524975B2, “Amphiphilic compound having dendronic hydrophobic group and application thereof” (Industry-University Cooperation Foundation Hanyang …, priority 2017, dated 2022).
Where two headings read alike, the source gives them in different places.

What was measured:
[1] = target: T1, MelBSt (melibiose permease) (Salmonella typhimurium, UniProt P30878); conditions: 1.5 wt % detergent, 90 minutes
T1 construct: made in house; host or cells: E. coli DW2 (ΔmelB, ΔlacZY), plasmid pK95ΔAHB/WT MelBSt/CH10
Experimental: Specifically, Salmonella typhimurium MelBSt (melibiose permease) having a 10-His tag at the C-terminus was expressed in E. coli DW2 cells (ΔmelB and ΔlacZY) using a pK95ΔAHB/WT MelBSt/CH10 plasmid. Cell growth and membrane preparation were carried out according to the methods disclosed in the paper written by A. S. Ethayathulla et al. (Nat. Commun. 2014, 5, 3009). A protein assay was performed using a Micro BCA kit (Thermo Scientific, Rockford, Ill.). MelBSt stability in DTMs or DDM was evaluated using the protocol disclosed in Nat. Methods 2010, 7, 1003-1008, written by P. S. Chae et al. A MelBSt-containing membrane sample (the final protein concentration was 10 mg/mL) was incubated in a solubilization buffer containing 1.5% (w/v) DDM or DTM (20 mM sodium phosphate, pH 7.5, 200 mM NaCl, 10% glycerol and 20 mM melibiose) at four different temperatures (0, 45, 55 and 65° C.) for 90 minutes. To remove an insoluble material, ultracentrifugation was performed using a Beckman Optima™ MAX ultracentrifuge equipped with a TLA-100 rotor at 355,590 g and 4° C. for 45 minutes. […] The loaded samples were analyzed by SDS-15% PAGE, and then visualized by immunoblotting with a Penta-His-HRP antibody (Qiagen, Germantown, Md.).

[2] = Critical micelle concentration by hydrophobic fluorescence staining with diphenylhexatriene (DPH); assay type: physicochemical
Experimental: A method of measuring CMC is not particularly limited, and may be a method widely known in the art, for example, fluorescent staining using diphenylhexatriene (DPH).
(§1) To identify the properties of DTMs synthesized according to the synthetic methods of Examples 1 and 2, the molecular weights (M.W.) and critical micellar concentrations (CMCs) of DTMs, and hydrodynamic radii (Rh) of formed micelles were measured.
(§2) Specifically, the CMCs were measured using hydrophobic fluorescence staining and diphenylhexatriene (DPH), and the hydrodynamic radii (Rh) of the micelles formed by each formulation were measured by dynamic light scattering (DLS).

β2AR = target: T2, β2AR (Homo sapiens, UniProt P07550); test: β2AR stability in detergent, [3H]-dihydroalprenolol (DHA) binding; assay type: biochemical; conditions: CMC+0.2 wt %, 4 days at room temperature, FIG. 9a
T2 construct: made in house; host or cells: Sf9 insect cells, baculovirus
Experimental: A receptor was expressed in Sf9 insect cells infected with a baculovirus and solubilized in 1% DDM. The DDM-solubilized receptor was purified by alprenolol-sepharose in the presence of 0.01% cholesteryl succinate (CHS). β2AR purified by DDM was diluted with a buffer containing DDM or DTM (DTM-A6, DTM-A7 or DTM-E7) to reach the final concentration of CMC+0.2 wt %. β2AR solubilized in each compound was stored for 4 days at room temperature, and the ligand binding ability of the receptor was measured at regular intervals by incubating the receptor with 10 nM radioactive [^3H]-dihydroalprenolol (DHA) for 30 minutes at room temperature. The mixture was loaded into a G-50 column, and a supernatant was collected using a certain amount of binding buffer (supplemented with 20 mM HEPES pH 7.5, 100 mM NaCl, 0.5 mg/ml BSA). In addition, a 15 ml scintillation fluid was added. Receptor-binding [^3H]-DHA was measured using a scintillation counter (Beckman).

β2AR-Gs complex [3] = target: T3, β2AR-Gs complex (Homo sapiens, UniProt P07550); test: Negative stain EM analysis of β2AR-Gs complex; conditions: FIG. 11
T3 construct: made in house; host or cells: β2AR: Sf9 insect cells
Experimental: A β2AR-Gs protein complex was prepared for electron microscopy using a conventional negative staining protocol, and imaged at room temperature using a Tecnai T12 electron microscope operated at 120 kV according to a low-dose procedure. Images were recorded at a magnification of 71,138× and a defocus value of approximately ˜1.1 μm on a Gatan US4000 CCD camera. All images were binned (2×2 pixels) to obtain a pixel size of 4.16 Å at a specimen level. Particles were manually […] using e2boxer (part of the EMAN2 software suite). 2D reference-free alignment and classification of particle projections were performed using ISAC. 124,279 projections of β2AR-Gs were subjected to ISAC producing 131 classes consistent in two-way matching and 10,000 particle projections.

β2AR-Gs complex [4] = target: T3, β2AR-Gs complex; test: Stability of β2AR-Gs complex by analytical gel filtration (SEC); conditions: complex purified in detergent, compound-free running buffer, 3 and 15-day incubation, FIG. 9b
Experimental: 100 μM β2AR solubilized in 0.1% DDM was mixed with 120 μM Gs heterotrimer for 30 minutes at room temperature. 0.5 unit of apyrase (NEB) and 2 mM MgCl2 was added to facilitate complex formation, followed by further incubation for one hour. Subsequently, 1% DTM-A6 was added such that the final concentration reached 0.8%, and the sample was further incubated for 30 minutes to change DDM to DTM-A6. The protein solution was loaded into a M1 Flag column, washed with a series of buffers with different molar ratios of 0.1% DDM buffer to 0.5% DTM-A6 buffer to completely change DDM to DTM-A6, and the protein was finally eluted with 0.05% (70×CMC) DTM-A6 buffer. Preparative gel filtration was performed to purify the β2AR-Gs complex with a running buffer (20 mM HEPES pH 7.5, 100 mM NaCl, 0.005% DTM-A6, 1 mM BI, […]). To measure the stability of the β2AR-Gs complex in DTM-A6, analytical gel filtrations were performed using the running buffer as above, but after 3 and 15-day incubation, performed without DTM-A6 (compound-free condition).

MelBSt and MelBEc = test: Galactoside-binding Trp→D2G FRET assay of detergent-solubilized MelB homologs; assay type: biochemical; conditions: 1.0% detergent, 60 minutes at 23° C., FIG. 8c
Experimental: In addition, RSO vesicles were prepared to be used for Trp→D^2G FRET assay. The RSO membrane vesicles were prepared by osmotic lysis from E. coli DW2 cells containing MelBSt or MelBEc. The RSO membrane vesicles mixed in a buffer (pH 7.5) containing 100 mM KPi and 100 mM NaCl at a protein concentration of 1 mg/ml were treated with 1.0% individual compounds (DDM, DTM-A5 and DTM-A6) for 60 minutes at 23° C., and ultracentrifuged using a TLA 120.2 rotor at 300,000 g or more for 45 minutes at 4° C. Supernatants were applied to a FRET (Trp→D^2G) experiment using an Amico-Bowman Series 2 (AB2) spectrofluorometer. The 2′-(N-dansyl)aminoalkyl-1-thio-β-D-galactopyranoside (D^2G, dansyl-galactoside) was obtained from Drs. Gerard Leblanc and H. Ronald Kaback. D^2G FRET signals of MelBSt and MelBEc were collected at 490 and 465 nm, respectively, upon excitation of Trp residues at 290 nm. 10 μM D^2G and excess melibiose or an equal amount of water (control) was added into an MelB solution at the time points of 1 minute and 2 minutes, respectively.

[5] = Hydrodynamic radius of micelles by dynamic light scattering (DLS); assay type: physicochemical; conditions: 0.5 wt % detergent concentration
Experimental: A method of measuring the radius of a micelle is not particularly limited, but may be a method well known in the art, for example, dynamic light scattering (DLS).
as §1, §2

β2AR-Gs complex [6] = target: T3, β2AR-Gs complex; conditions: DDM-purified complex, previous study; cited from earlier work
LHI-RC complex = test system: T4, LHI-RC complex; test: Structural stability of LHI-RC complex in detergent, UV-Vis absorbance at 875 nm; parameters: species or system R. capsulatus; conditions: 25° C., FIG. 5
T4 construct: His tag (implied only by Ni-NTA / HisSpinTrap purification); made in house; host or cells: R. capsulatus U43 [pUHTM86Bgl] membranes
Experimental: An experiment was conducted to evaluate the stabilization ability of DTMs on LHI-RC. The photosynthetic super assembly consists of a complex of light-harvesting complex I (LHI) and a reaction center (RC). The structural stability of LHI-RC was measured by a method of monitoring the structure of a protein for 20 days using UV-Vis spectroscopy. LHI-RC protein stability according to the concentration of an amphiphilic molecule was investigated using all DTMs of the present invention, and conventional amphiphilic molecules, such as DDM and OG, and the concentrations of an amphiphilic molecule used here were CMC+ 0.04 wt % (FIG. 5a) and CMC+ 0.2 wt % (FIG. 5b).
Specifically, LHI-RC stability was measured using a method disclosed in the paper published in 2008 by the inventors (P. S. Chae et al., ChemBioChem 2008, 9, 1706-1709.). […] A 10 mL aliquot of the solution of the frozen R. capsulatus membrane was homogenized using a glass homogenizer, and incubated with gentle stirring at 32° C. for 30 minutes. The homogenized membrane was treated with 1.0 wt % DDM for 30 minutes at 32° C. […] Protein stability was measured at regular intervals during the incubation by measuring UV-Vis spectra of the samples in the range of 650 to 950 nm. Protein integrity was evaluated by monitoring absorbance (A875) at 875 nm.

β2AR-Gs complex [7] = target: T3, β2AR-Gs complex; conditions: DDM-purified complex, previous study; cited from earlier work; remark: listed apart in the source
[8] = DPH fluorescence staining, aqueous solution

Row | SMILES | MelBst solubilization from the membrane ([1]; 55° C.) | CMC [2, 8] | CMC (wt %) [2, 8] | long-term β2AR receptor activity (β2AR) | homogeneity of β2AR-Gs complex particles (negative stain EM) (β2AR-Gs complex [3]) | integrity of β2AR-Gs complex (SEC) (β2AR-Gs complex [4]) | maintenance of MelB protein function (galactoside binding) of two homologs (MelBSt and MelBEc) | R2 (nm), detergent hydrodynamic radius [5] | integrity of β2AR-Gs complex (β2AR-Gs complex [6]) | MelBst solubilization from the membrane ([1]; 0° C. and 45° C.) | MelBst protein extraction efficiency ([1]; 0° C.) | MelBst solubilization from the membrane ([1]; 65° C.) | LHI-RC protein stability when concentration increases from CMC+0.04 wt % to CMC+0.2 wt % (LHI-RC complex) | CMC [2] | homogeneity of β2AR-Gs complex particles (negative stain EM) (β2AR-Gs complex [7])
1 | CCCCCCC(CCCCCC)COCC(COCC(CCCCCC)CCCCCC)COCC(CO[C@@H]1OC(CO)[C@@H](O[C@H]2OC(CO)[C@@H](O)C(O)C2O)C(O)C1O)(CO[C@@H]1OC(CO)[C@@H](O[C@H]2OC(CO)[C@@H](O)C(O)C2O)C(O)C1O)CO[C@@H]1OC(CO)[C@H](O[C@H]2OC(CO)[C@@H](O)C(O)C2O)C(O)C1O (stereo partly drawn) [DTM-A6] | most effectively solubilized | ~10 µM | ~0.0015 wt % | consistently maintained | highly homogeneous | continuously maintains its integrity as a complex for 15 days | maintain protein function | 3.7 ± 0.0 nm | – | – | – | – | – | – | –
2 | CCCCCCCCCCCCO[C@@H]1O[C@H](CO)[C@@H](O[C@H]2O[C@H](CO)[C@@H](O)[C@H](O)[C@H]2O)[C@H](O)[C@H]1O [DDM, n-dodecyl-β-D-maltopyranoside] | – | 170 µM | 0.0087 wt % | rapid loss of activity over time | – | – | only one of the two homologs | 3.4 ± 0.0 nm | significant dissociation between the receptor and Gs protein even after 2 day-incubation | stably solubilized | higher protein extraction efficiency than DTMs | did not occur | protein stability decreases | 170 µM | aggregation of particles
3 | CCCCCCCCO[C@@H]1O[C@H](CO)[C@@H](O)[C@H](O)[C@H]1O [OG, n-octyl-β-D-glucopyranoside] | – | – | – | – | – | – | – | – | – | – | – | – | protein stability decreases | – | –
